Assay results published in patent US20250361281A1, “AMYLIN RECEPTOR (hAMY3R) AGONISTS WITH IMPROVED CHEMICAL STABILITY” (GUBRA A/S, priority 2022, published 2025).
Like-named read-outs stand apart in the source and are kept apart here. Starred links: 1 amine or outer side, 2 acyl side, 3 side chain; linkers in the order of their positions; H or OH if unused. Positions of bridges follow the written chain, without caps; N, C: chain ends. Non-standard residues stand in square brackets, D forms with d. Residues, ends and D or L forms follow the SMILES beside them. *: point of attachment. C20 diacid = O=C(O)CCCCCCCCCCCCCCCCCCC(=O)*; γGlu = O=C(O)[C@H](CCC(=O)[*:2])N[*:1]; Hyp = O=C(O)[C@@H]1C[C@@H](O)CN1; CH2 = C([*:1])[*:2]

Key:
[1] = cited from earlier work
[2] = Physical stability of peptide analogues (Thioflavin T fibrillation); format: physicochemical; details: ThT fluorescence, 40° C., shaking, four days; pH 4 or pH 7 buffer
Method: General Protocols for Determination of Physical Stability of Peptide Analogues
Peptides were dissolved in buffers (50 mM sodium acetate at pH 4 or 50 mM sodium phosphate at pH 7) and incubated for one hour. The samples were then divided into two replicates of 80 μl in a black 384 well plate (μ-clear, Greiner Bio-One) and mixed with Thioflavin T (ThT) to a final concentration of 4 μM. The plate was sealed and placed in a plate reader (CLARIOstar, BMG) where the temperature was set at 40° C. during the course of the experiment. The samples were further stressed by shaking the plate at 700 rpm (linear) for five minutes before every measurement. The fluorescence was measured every 10 min for four days by exciting the ThT at 450 nm and measuring the emission at 480 nm. For each peptide, the ThT signal over time was smoothened using Local Polynomial Regression fitting (LOESS) as implemented in the statistical programming environment R. For the smoothened data, the maximum ThT signal was normalized in percent between the maximum ThT signal for hAMY and the buffer background.

hAMY3 receptor = target: T1, hAMY3 receptor (Homo sapiens, UniProt O60896+P30988); details: previously shown (WO 2022/063925 A1); read-out: hAMY3R EC50; cited from earlier work
T1 construct: monoclonal sub-clone
T1 sequence (P30988 25-474): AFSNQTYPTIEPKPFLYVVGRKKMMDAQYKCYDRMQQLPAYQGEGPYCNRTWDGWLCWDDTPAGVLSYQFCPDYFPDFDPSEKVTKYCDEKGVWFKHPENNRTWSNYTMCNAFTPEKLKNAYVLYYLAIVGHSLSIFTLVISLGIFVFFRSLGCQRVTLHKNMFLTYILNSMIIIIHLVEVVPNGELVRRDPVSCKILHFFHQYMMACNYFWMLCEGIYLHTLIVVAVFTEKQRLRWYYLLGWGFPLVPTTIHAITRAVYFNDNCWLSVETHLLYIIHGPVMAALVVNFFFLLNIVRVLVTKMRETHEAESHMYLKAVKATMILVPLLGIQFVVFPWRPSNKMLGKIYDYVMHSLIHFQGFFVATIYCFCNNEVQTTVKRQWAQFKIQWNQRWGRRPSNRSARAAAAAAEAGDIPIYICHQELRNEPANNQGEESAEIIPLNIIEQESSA
T1 sequence (O60896 24-148 partner): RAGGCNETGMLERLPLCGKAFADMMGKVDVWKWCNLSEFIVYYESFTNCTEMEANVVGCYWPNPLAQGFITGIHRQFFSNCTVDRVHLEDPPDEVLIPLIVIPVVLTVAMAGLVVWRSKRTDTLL

[3] = Determination of deamidation and isomerization (LC-MS); format: physicochemical; details: 50 mM phosphate buffer pH 7, 40° C., up to 28 days
Method: General Protocol for Determination of Deamidation and Isomerization
Peptides were dissolved in 50 mM phosphate buffer (pH 7) and incubated at 40° C. for up to 28 days. The samples were then analysed on a Exploris120 mass spectrometer coupled to a Vanquish Tandem UPLC (both Thermo Fisher) equipped with an Acquity BEH C18 column (1.7 um, 2.1×50 mm, 130A, Waters). Peptides were eluted using a linear gradient starting at 5% over 7.5 min to 70% buffer B at a flow rate of 0.4 mL/min (buffer B=100% acetonitrile with 0.1% formic acid; buffer A=100% water with 0.1% formic acid). Data were acquired in data-dependent acquisition mode at a MS1 resolution of 60.000, and a MS2 resolution of 30.000 in positive mode (Top4). Peptides were fragmented with a normalized collision energy of 25%. Deamidation and isomerization were quantified using area under the curve integration.

hAM1 receptor [4] = target: T2, hAM1 receptor (Homo sapiens, UniProt O60895+Q16602); details: previously shown (WO 2022/063925 A1); read-out: hAM1R EC50; cited from earlier work
T2 construct: monoclonal sub-clone
T2 sequence (Q16602 23-461): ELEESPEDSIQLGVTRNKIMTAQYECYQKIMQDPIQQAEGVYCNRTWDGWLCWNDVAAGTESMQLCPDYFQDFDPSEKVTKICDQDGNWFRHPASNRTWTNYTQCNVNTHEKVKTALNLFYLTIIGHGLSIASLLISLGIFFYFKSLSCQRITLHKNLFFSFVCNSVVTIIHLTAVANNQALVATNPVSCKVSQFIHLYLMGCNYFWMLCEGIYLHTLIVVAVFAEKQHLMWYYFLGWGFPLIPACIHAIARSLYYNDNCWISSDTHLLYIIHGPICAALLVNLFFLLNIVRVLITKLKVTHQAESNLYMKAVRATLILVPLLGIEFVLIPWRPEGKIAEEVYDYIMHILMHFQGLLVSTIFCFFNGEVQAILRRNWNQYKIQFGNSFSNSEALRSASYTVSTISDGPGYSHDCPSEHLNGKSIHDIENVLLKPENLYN
T2 sequence (O60895 43-175 partner): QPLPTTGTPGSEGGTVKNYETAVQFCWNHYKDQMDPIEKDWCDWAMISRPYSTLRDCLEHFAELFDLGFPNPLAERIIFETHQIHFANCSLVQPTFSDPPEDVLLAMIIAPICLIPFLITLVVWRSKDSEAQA

[5] = Determination of dimer and HMWP formation (size exclusion chromatography); format: physicochemical; details: 50 mM phosphate buffer pH 7, 40° C., up to 28 days
Method: General Protocol for Determination of Dimer and HMWP Formation
Peptides were dissolved in 50 mM phosphate buffer (pH 7) and incubated at 40° C. for up to 28 days. The samples were then analysed using size exclusion chromatography analysis to quantify the amount of High Molecular Weight Products (HMWP), which is an overall term for covalently linked peptide dimers, trimers, and higher order multimers. Analyses were carried out on a Dionex Ultimate 3000 RS UHPLC Focused chromatography system (Thermo Scientific) equipped with a Acquity Protein BEH SEC 1.7 μm 4.6×300 mm 125 Å column (Waters part no 186006506). The solvent system consisted of two mobile phases that are assumed to break all non-covalent interactions between peptides leaving only monomeric peptide and covalent HMWP to be analysed. • Mobile phase A (all v/v %): 95% H2O, 5% MeCN (Acetonitrile), 0.1% TFA (Trifluoroacetic acid) • Mobile phase B (all v/v %): 95% MeCN, 5% H2O, 0.1% TFA
The typically load was 1 μl of 1.0 mg/ml, and the detection signal at 215 nm should optimally be between 0.1 and 1.5 abs units. Isocratic elution was done with 60% mobile phase B and a flow of 0.3 ml/min in 20 minutes. Chromatograms were integrated as HMWP (all peaks in front of the main peak) The amount of the various species was reported as area relative to total area in percentage.

hAM1 receptor [6] = target: T2, hAM1 receptor; assay: cAMP assay for in vitro receptor activation, hAM1-R; format: cell-based; details: cells stably overexpressing hAM1 receptor, cAMP accumulation, 30 min stimulation; read-out: hAM1R EC50
Method: General Protocols for cAMP Assays for Measuring In Vitro Receptor Activation hAMY3-R:
Cells stably overexpressing the hAM1 receptor were obtained from Ogeda (now Astellas Pharma), sub-cloned and a monoclonal cell-line with an appropriate assay-window was expanded, aliquoted and frozen. An aliquot was thawed and plated in DPBS with 0.05% casein and 0.5 mM IBMX as 8000 cells/well in a 384-well format.

Fibril formation [2] | Deamidation [3] | Isomerization [3] | Dimerization and HMWP formation [5] | Deamidation ([3]; listed as 4) | EC50 (hAM1 receptor [6]) | SMILES | fibrillation at pH 7 ([1]; pH 7, background statement) | EC50 (hAMY3 receptor) | EC50 (hAM1 receptor [4]) | fibrillation ([1]; previously shown)
No |  |  |  |  |  | CC[C@H](C)[C@H](NC(=O)[C@H](CCC(N)=O)NC(=O)[C@H](Cc1c[nH]cn1)NC(=O)[C@H](C)NC(=O)[C@H](CC(C)C)NC(=O)[C@H](CCCCN)NC(=O)[C@H](CCC(N)=O)NC(=O)[C@@H](NC(=O)[C@@H](NC(=O)[C@@H]1CSSC[C@H](NC(=O)CN)C(=O)N[C@@H](CCCNC(=N)N)C(=O)N[C@@H](Cc2ccccc2)C(=O)NCC(=O)N[C@@H]([C@@H](C)O)C(=O)N1)[C@@H](C)O)C(C)C)C(=O)N[C@@H](Cc1ccc(O)cc1)C(=O)N[C@@H](CCC(N)=O)C(=O)N[C@@H](Cc1ccccc1)C(=O)N[C@H](C(=O)N[C@@H](CC(=O)O)C(=O)N[C@@H](CCCCN)C(=O)N[C@@H](CC(=O)O)C(=O)N[C@@H](CCCCN)C(=O)N[C@@H](CC(=O)O)C(=O)N[C@@H](CC(N)=O)C(=O)N[C@H](C(=O)N[C@@H](C)C(=O)N1CCC[C@H]1C(=O)N[C@@H](CCCNC(=N)N)C(=O)N[C@@H](CO)C(=O)N[C@@H](CCCCN)C(=O)N[C@H](C(=O)N[C@@H](CO)C(=O)N1CCC[C@H]1C(=O)N[C@@H](CCC(N)=O)C(=O)NCC(=O)N[C@@H](Cc1ccc(O)cc1)C(N)=O)[C@@H](C)CC)C(C)C)[C@@H](C)O [SEQ ID NO: 1] | does not fibrillate |  |  | 
No | 97% | 5% | 12% |  |  | CC[C@H](C)[C@H](NC(=O)[C@H](CCC(N)=O)NC(=O)[C@H](CCC(=O)O)NC(=O)[C@H](C)NC(=O)[C@H](CC(C)C)NC(=O)[C@H](CCCNC(=N)N)NC(=O)[C@H](CCC(N)=O)NC(=O)[C@@H](NC(=O)[C@@H](NC(=O)[C@@H]1CSSC[C@H](NC(=O)[C@H](CCCCN)NC(=O)CC[C@H](NC(=O)CCCCCCCCCCCCCCCCCCC(=O)O)C(=O)O)C(=O)N[C@@H](CC(N)=O)C(=O)N[C@@H]([C@@H](C)O)C(=O)N[C@@H](C)C(=O)N[C@@H]([C@@H](C)O)C(=O)N1)[C@@H](C)O)C(C)C)C(=O)N[C@@H](C)C(=O)N[C@@H](CCC(N)=O)C(=O)N[C@@H](Cc1ccccc1)C(=O)N[C@H](C(=O)N[C@@H](CC(=O)O)C(=O)N[C@@H](CCCCN)C(=O)N[C@@H](CC(=O)O)C(=O)N[C@@H](CCCCN)C(=O)N[C@@H](CC(=O)O)C(=O)N[C@@H](CC(N)=O)C(=O)N[C@H](C(=O)N[C@@H](C)C(=O)N1CCC[C@H]1C(=O)N1CCC[C@H]1C(=O)N[C@H](C(=O)N[C@@H](CC(N)=O)C(=O)N[C@H](C(=O)NCC(=O)N[C@@H](CO)C(=O)N[C@@H](CC(N)=O)C(=O)NCC(=O)N1C[C@H](O)C[C@H]1C(N)=O)C(C)C)[C@@H](C)O)C(C)C)[C@@H](C)O [SEQ ID NO: 3] ({C20 diacid-γGlu}-KCNTATCTVQRLAEQIAQFTDKDKDNVAPPTNVGSNG[Hyp]-NH2; disulfide 2-7) |  | 14 nM | > 5000 nM | no fibrillation
No | < 5% | 1.2% | 2% | <5% | > 5000 nM | CC[C@H](C)[C@H](NC(=O)[C@H](CCC(N)=O)NC(=O)[C@H](CCC(=O)O)NC(=O)[C@H](C)NC(=O)[C@H](CC(C)C)NC(=O)[C@H](CCCNC(=N)N)NC(=O)[C@H](C)NC(=O)[C@@H](NC(=O)[C@@H](NC(=O)[C@@H]1CSCSC[C@H](NC(=O)[C@H](CCCCN)NC(=O)CC[C@H](NC(=O)CCCCCCCCCCCCCCCCCCC(=O)O)C(=O)O)C(=O)N[C@@H](CC(C)C)C(=O)N[C@@H]([C@@H](C)O)C(=O)N[C@@H](C)C(=O)N[C@@H]([C@@H](C)O)C(=O)N1)[C@@H](C)O)C(C)C)C(=O)N[C@@H](C)C(=O)N[C@@H](CCC(N)=O)C(=O)N[C@@H](Cc1ccccc1)C(=O)N[C@H](C(=O)N[C@@H](CC(=O)O)C(=O)N[C@@H](CCCCN)C(=O)N[C@@H](CC(=O)O)C(=O)N[C@@H](CCCCN)C(=O)N[C@@H](CCC(=O)O)C(=O)N[C@@H](CC(N)=O)C(=O)N[C@H](C(=O)N[C@@H](C)C(=O)N1CCC[C@H]1C(=O)N1CCC[C@H]1C(=O)N[C@H](C(=O)N[C@@H](C)C(=O)N[C@H](C(=O)NCC(=O)N[C@@H](CO)C(=O)N[C@@H](C)C(=O)NCC(=O)N1C[C@H](O)C[C@H]1C(N)=O)C(C)C)[C@@H](C)O)C(C)C)[C@@H](C)O [SEQ ID NO: 4] ({C20 diacid-γGlu}-KCLTATCTVARLAEQIAQFTDKDKENVAPPTAVGSAG[Hyp]-NH2; linker 2-7 via CH2) |  |  |  | 
